According to patent US20260144753A1, “MULTIVALENT IONIZABLE LIPID DELIVERY SYSTEMS” (Factor Bioscience Inc., priority 2023, published 2026):
“Also recorded” adds a separate entry of the source. Read-outs that look alike come from different tables or passages of the source.

How the values were obtained:
rat dermal tissue = experiment: Intradermal injection of lipid-complexed GFP mRNA in rats; assay type: in vivo; conditions: 2000 ng GFP mRNA, 48 hours
Experimental: In this Example, in vivo experiments were carried out in rats to investigate the transfection and expression efficiency of RNA complexed with the lipids of the present disclosure.
2000 ng of DLinDHS-complexed GFP mRNA was administered to rats by intradermal injection. After 48 hours, the injection site was fixed and stained (anti-rabbit GFP).

THP-1 monocytes = experiment: Viability of THP-1 monocytes after transfection, Cell Titer Glo; assay type: cell-based, human
Experimental: Relative viability was determined using a Cell Titer Glo viability assay and calculating viability relative to untransfected cells.

Jurkat T cells = experiment: Jurkat T cell transfection efficiency of lipoplex formulations, flow cytometry; assay type: cell-based; conditions: lipoplexes, 100 ng RNA per 100,000 cells, compared to other lipids in Family D
Experimental: To evaluate transfection efficiency and cytotoxicity, THP-1 monocytes and Jurkat T cells were transfected with lipoplexes and lipid nanoparticles. […] A screen of 4 lipoplex formulations was analyzed using flow cytometry for doses of 100 ng RNA per 100,000 cells.

[1] = Zeta potential of nanoparticle formulation; assay type: physicochemical; conditions: LNPs, at a pH of 7.0
[2] = test system: THP-1 human monocyte cell line; experiment: THP-1 monocyte transfection efficiency, GFP mRNA lipoplexes and LNPs, flow cytometry; assay type: cell-based; conditions: for transfection efficiency in lipoplex screen (in words): Family D lipoplexes, lipid:mRNA weight ratio of 2:1, THP-1; for in vitro transfection efficiency, LNP form (in words): LNPs
Experimental: (§1) LNPs were formulated through bulk mixing using a molar ratio of 50:38.5:10:1.5 (ionizable lipid/cholesterol/DSPC/DMG-PEG2000) and a 0.067 weight ratio of mRNA to ionizable lipid. Lipoplexes were formulated at various weight ratios of lipid:mRNA, and mRNA loading efficiency was determined via gel electrophoresis.
To evaluate transfection efficiency and cytotoxicity, THP-1 monocytes and Jurkat T cells were transfected with lipoplexes and lipid nanoparticles.
Density plots are shown of GFP+ transfected cells from doses of 2000 ng RNA per 120,000 cells for each formulation.
These 5 lipids are all in the Family D with a spermine headgroup and bis 2-hexyldecanoate tails. Lipids are listed in order of increasing carbon spacer link length. Lipoplexes were created using a lipid:mRNA weight ratio of 2:1 for each formulation.
The measured diameter of the Compound XVI lipoplexes was 359 nm. Compound XVI also functioned effectively as a solid LNP when using a molar ratio of 50:38.5:10:1.5 (ionizable lipid/cholesterol/DSPC/DMG-PEG2000) and a 0.12 weight ratio of mRNA to ionizable lipid. […] The ability to efficiently target blood cells using lipid delivery systems opens the door to a variety of applications, including potent in vivo mRNA delivery and cell reprogramming. […]

[3] = Encapsulation efficiency of LNPs, RiboGreen assay; assay type: physicochemical; conditions: for average encapsulation efficiency (%): RiboGreen
Experimental: as §1, with “electrophoresis. […] Encapsulation efficiency of LNPs was measured using a RiboGreen assay.” for “electrophoresis.”

[4] = Dynamic light scattering, hydrodynamic diameter of the nanoparticles; assay type: physicochemical
Experimental: […] Lipoplexes were formulated at various weight ratios of lipid:mRNA, and mRNA loading efficiency was determined via gel electrophoresis. […] Dynamic light scattering (DLS) was used to determine hydrodynamic diameter of the nanoparticles, graphed as number particle size distribution. Polydispersity index (PDI) was also measured.

HEKn cells = experiment: LNP transfection efficacy in HEKn cells, mean GFP fluorescence intensity; assay type: cell-based; conditions: increasing amounts of mRNA
Experimental: Experiments were conducted to characterize LNP transfection efficacy of Compound XXXV in HEKn cells. A performance comparison was run between control (ToRNAdo lipoplex) and test subject Compound XXXV LNP with increasing amounts of mRNA, with other variables held constant. […] Mean GFP fluorescence intensity was calculated using Operetta® Harmony software. […] An experiment was conducted to characterize lipoplex efficiency in Jurkat cells. A performance comparison was run between control (Lipofectamine 3000) and spermine bis hexyldecanoate ionizable lipid compounds with varying tether length (3-7). Lipid:mRNA weight ratios were optimized for each lipid as determined by gel electrophoresis (Compound XX (2:1), Compound XXVIII (2.5:1), Compound XIX (1:2), Compound XVI (2.5:1), Compound XXIV (1:1)). […] The bottom panels (“Neg.”) of FIG. 57 depict negative control experiments wherein no RNA was delivered.

## CCCCC/C=C\C/C=C\CCCCCCCCN(CCCCN(CCCCCCCC/C=C\C/C=C\CCCCC)CC(O)CN)CC(O)CN (stereo not drawn) [DLinDHS, N^1,N^4-dilinoleyl-N^1,N^4-di-(2-hydroxy-3-aminopropyl)-diaminobutane]
Rat dermal tissue
  GFP reporter expression after intradermal injection (in words): localized expression in the dermal layer

## CCCCCCCCC(CCCCCC)C(=O)OCCCCCCN(CCCN)CCCCN(CCCN)CCCCCCOC(=O)C(CCCCCC)CCCCCCCC (stereo not drawn) [Compound XVI, (butane-1,4-diylbis((3-aminopropyl)azanediyl))bis(hexane-6,1-diyl) bis(2-hexyldecanoate)]
THP-1 monocytes
  toxicity, viability of THP-1 monocytes after transfection (in words): significantly greater toxicity than respective Compound XVI lipoplexes
Jurkat T cells
  transfection in the Jurkat T cell line (in words): greatest transfection
[1]
  surface charge: +3.6 mV
[2]
  transfection efficiency in lipoplex screen (in words): greatest transfection efficiency
[2]; GFP mRNA, THP-1
  in vitro transfection efficiency, LNP form (in words): greater in vitro transfection efficiency than the clinically used Dlin-MC3-DMA LNPs; also recorded: greater in vitro transfection efficiency of THP-1 monocytes than commercially-available controls
[2]; lipoplexes, GFP mRNA, THP-1
  half-maximal effective concentration (EC50): 147 ng RNA per 50,000 cells
  in vitro transfection efficiency, lipoplex form (in words): greatest transfection efficiency; also recorded: greater in vitro transfection efficiency of THP-1 monocytes than commercially-available controls
[3]
  encapsulation efficiency of LNPs (in words): near complete encapsulation efficiency; also recorded: greater encapsulation of mRNA
  average encapsulation efficiency (%): 87.0%
[4]; lipoplexes
  measured diameter of the lipoplexes: 359 nm
[4]; solid LNP, molar ratio 50:38.5:10:1.5 (ionizable lipid/cholesterol/DSPC/DMG-PEG2000), 0.12 weight ratio of mRNA to ionizable lipid
  diameter of LNPs: 170 nm

## CCCCCCCCC(CCCCCC)C(=O)OCCCCCCN(CCCCN(CCCCCCOC(=O)C(CCCCCC)CCCCCCCC)CC(O)CN)CC(O)CN (stereo not drawn) [Compound XXXV, (butane-1,4-diylbis((3-amino-2-hydroxypropyl)azanediyl))bis(hexane-6,1-diyl) bis(2-hexyldecanoate)]
HEKn cells
  LNP transfection into HEKn cells, mean GFP fluorescence intensity (in words): successful transfection into HEKn cells with diminishing returns as mRNA dosage increased

## CCCCCCCCC(CCCCCC)C(=O)OCCCCCN(CCCN)CCCCN(CCCN)CCCCCOC(=O)C(CCCCCC)CCCCCCCC (stereo not drawn) [Compound XIX]
THP-1 monocytes
  toxicity, relative viability of THP-1 monocytes after transfection (in words): greatest toxicity
[2]
  transfection efficiency in lipoplex screen (in words): greatest transfection efficiency

## CCCCC/C=C\C/C=C\CCCCCCCCC(CCCCCCCC/C=C\C/C=C\CCCCC)OC(=O)CCCN(C)C [DLin-MC3-DMA, reference compound]
THP-1 monocytes; LNPs and lipoplexes (FIG. 10)
  toxicity, viability of THP-1 monocytes after transfection (in words): very little toxicity
[2]; GFP mRNA, THP-1
  in vitro transfection efficiency, LNP form (in words): low transfection efficiency
[3]
  average encapsulation efficiency (%): 61.7%
